Results reported in the NIST ThermoML archive (doi:10.1021/je500381c).
± gives the expanded uncertainty stated by the source.

Assay: xn = mol fraction of the nth substance listed
Details: for mass density / viscosity: 100 kPa, Liquid; for mass density: Vibrating tube method; for surface tension liquid-gas: Drop volume

## CCC12CC3CC(CC(C3)C1)C2 [1-ethyladamantane] + CCCCCCCO
293.15 K, x2 = 0
  mass density: 937.11 ± 0.15 kg/m3
  viscosity: 6.371 ± 0.1 mPa·s
293.15 K, x2 = 0.0999
  mass density: 927.59 ± 0.15 kg/m3
  viscosity: 5.91 ± 0.093 mPa·s
293.15 K, x2 = 0.1999
  mass density: 917.88 ± 0.15 kg/m3
  viscosity: 5.707 ± 0.09 mPa·s
293.15 K, x2 = 0.2988
  mass density: 907.92 ± 0.15 kg/m3
  viscosity: 5.62 ± 0.089 mPa·s
293.15 K, x2 = 0.3991
  mass density: 897.36 ± 0.15 kg/m3
  viscosity: 5.584 ± 0.088 mPa·s
293.15 K, x2 = 0.4998
  mass density: 886.28 ± 0.15 kg/m3
  viscosity: 5.647 ± 0.089 mPa·s
293.15 K, x2 = 0.5995
  mass density: 874.78 ± 0.15 kg/m3
  viscosity: 5.843 ± 0.092 mPa·s
293.15 K, x2 = 0.7
  mass density: 862.6 ± 0.15 kg/m3
  viscosity: 6.077 ± 0.096 mPa·s
293.15 K, x2 = 0.8002
  mass density: 849.85 ± 0.16 kg/m3
  viscosity: 6.41 ± 0.1 mPa·s
293.15 K, x2 = 0.9
  mass density: 836.45 ± 0.16 kg/m3
  viscosity: 6.719 ± 0.11 mPa·s
298.15 K, x2 = 0
  surface tension liquid-gas: 29.87 ± 0.18 mN/m
  mass density: 933.58 ± 0.15 kg/m3
  viscosity: 5.565 ± 0.088 mPa·s
298.15 K, x2 = 0.0999
  surface tension liquid-gas: 29.66 ± 0.18 mN/m
  mass density: 924.02 ± 0.15 kg/m3
  viscosity: 5.136 ± 0.081 mPa·s
298.15 K, x2 = 0.1999
  surface tension liquid-gas: 29.21 ± 0.18 mN/m
  mass density: 914.26 ± 0.15 kg/m3
  viscosity: 4.958 ± 0.078 mPa·s
298.15 K, x2 = 0.2988
  surface tension liquid-gas: 28.87 ± 0.18 mN/m
  mass density: 904.28 ± 0.15 kg/m3
  viscosity: 4.86 ± 0.077 mPa·s
298.15 K, x2 = 0.3991
  surface tension liquid-gas: 28.72 ± 0.17 mN/m
  mass density: 893.7 ± 0.15 kg/m3
  viscosity: 4.836 ± 0.076 mPa·s
298.15 K, x2 = 0.4998
  surface tension liquid-gas: 28.42 ± 0.17 mN/m
  mass density: 882.65 ± 0.15 kg/m3
  viscosity: 4.859 ± 0.077 mPa·s
298.15 K, x2 = 0.5995
  surface tension liquid-gas: 28.1 ± 0.17 mN/m
  mass density: 871.16 ± 0.15 kg/m3
  viscosity: 4.989 ± 0.079 mPa·s
298.15 K, x2 = 0.7
  surface tension liquid-gas: 27.75 ± 0.17 mN/m
  mass density: 859.01 ± 0.16 kg/m3
  viscosity: 5.156 ± 0.081 mPa·s
298.15 K, x2 = 0.8002
  surface tension liquid-gas: 27.23 ± 0.17 mN/m
  mass density: 846.29 ± 0.16 kg/m3
  viscosity: 5.422 ± 0.085 mPa·s
298.15 K, x2 = 0.9
  surface tension liquid-gas: 26.74 ± 0.16 mN/m
  mass density: 832.93 ± 0.16 kg/m3
  viscosity: 5.683 ± 0.089 mPa·s
303.15 K, x2 = 0
  mass density: 929.99 ± 0.15 kg/m3
  viscosity: 4.903 ± 0.078 mPa·s
303.15 K, x2 = 0.0999
  mass density: 920.37 ± 0.15 kg/m3
  viscosity: 4.506 ± 0.071 mPa·s
303.15 K, x2 = 0.1999
  mass density: 910.61 ± 0.15 kg/m3
  viscosity: 4.337 ± 0.069 mPa·s
303.15 K, x2 = 0.2988
  mass density: 900.6 ± 0.15 kg/m3
  viscosity: 4.238 ± 0.067 mPa·s
303.15 K, x2 = 0.3991
  mass density: 890.03 ± 0.15 kg/m3
  viscosity: 4.215 ± 0.067 mPa·s
303.15 K, x2 = 0.4998
  mass density: 878.99 ± 0.15 kg/m3
  viscosity: 4.215 ± 0.067 mPa·s
303.15 K, x2 = 0.5995
  mass density: 867.51 ± 0.15 kg/m3
  viscosity: 4.306 ± 0.068 mPa·s
303.15 K, x2 = 0.7
  mass density: 855.39 ± 0.16 kg/m3
  viscosity: 4.424 ± 0.07 mPa·s
303.15 K, x2 = 0.8002
  mass density: 842.7 ± 0.16 kg/m3
  viscosity: 4.63 ± 0.073 mPa·s
303.15 K, x2 = 0.9
  mass density: 829.37 ± 0.16 kg/m3
  viscosity: 4.841 ± 0.076 mPa·s
308.15 K, x2 = 0
  mass density: 926.4 ± 0.15 kg/m3
  viscosity: 4.348 ± 0.069 mPa·s
308.15 K, x2 = 0.0999
  mass density: 916.7 ± 0.15 kg/m3
  viscosity: 3.965 ± 0.063 mPa·s
308.15 K, x2 = 0.1999
  mass density: 906.92 ± 0.15 kg/m3
  viscosity: 3.814 ± 0.06 mPa·s
308.15 K, x2 = 0.2988
  mass density: 896.92 ± 0.15 kg/m3
  viscosity: 3.722 ± 0.059 mPa·s
308.15 K, x2 = 0.3991
  mass density: 886.35 ± 0.15 kg/m3
  viscosity: 3.692 ± 0.058 mPa·s
308.15 K, x2 = 0.4998
  mass density: 875.31 ± 0.15 kg/m3
  viscosity: 3.681 ± 0.058 mPa·s
308.15 K, x2 = 0.5995
  mass density: 863.84 ± 0.16 kg/m3
  viscosity: 3.742 ± 0.059 mPa·s
308.15 K, x2 = 0.7
  mass density: 851.75 ± 0.16 kg/m3
  viscosity: 3.824 ± 0.06 mPa·s
308.15 K, x2 = 0.8002
  mass density: 839.08 ± 0.16 kg/m3
  viscosity: 3.985 ± 0.063 mPa·s
308.15 K, x2 = 0.9
  mass density: 825.79 ± 0.16 kg/m3
  viscosity: 4.154 ± 0.065 mPa·s
313.15 K, x2 = 0
  mass density: 922.81 ± 0.15 kg/m3
  viscosity: 3.878 ± 0.061 mPa·s
313.15 K, x2 = 0.0999
  mass density: 913.02 ± 0.15 kg/m3
  viscosity: 3.516 ± 0.056 mPa·s
313.15 K, x2 = 0.1999
  mass density: 903.22 ± 0.15 kg/m3
  viscosity: 3.376 ± 0.053 mPa·s
313.15 K, x2 = 0.2988
  mass density: 893.21 ± 0.15 kg/m3
  viscosity: 3.286 ± 0.052 mPa·s
313.15 K, x2 = 0.3991
  mass density: 882.64 ± 0.15 kg/m3
  viscosity: 3.251 ± 0.051 mPa·s
313.15 K, x2 = 0.4998
  mass density: 871.61 ± 0.16 kg/m3
  viscosity: 3.235 ± 0.051 mPa·s
313.15 K, x2 = 0.5995
  mass density: 860.15 ± 0.16 kg/m3
  viscosity: 3.275 ± 0.052 mPa·s
313.15 K, x2 = 0.7
  mass density: 848.08 ± 0.16 kg/m3
  viscosity: 3.331 ± 0.053 mPa·s
313.15 K, x2 = 0.8002
  mass density: 835.43 ± 0.16 kg/m3
  viscosity: 3.454 ± 0.054 mPa·s
313.15 K, x2 = 0.9
  mass density: 822.17 ± 0.16 kg/m3
  viscosity: 3.589 ± 0.057 mPa·s
318.15 K, x2 = 0
  mass density: 919.21 ± 0.15 kg/m3
  viscosity: 3.478 ± 0.055 mPa·s
318.15 K, x2 = 0.0999
  mass density: 909.33 ± 0.15 kg/m3
  viscosity: 3.135 ± 0.05 mPa·s
318.15 K, x2 = 0.1999
  mass density: 899.51 ± 0.15 kg/m3
  viscosity: 3.003 ± 0.048 mPa·s
318.15 K, x2 = 0.2988
  mass density: 889.49 ± 0.15 kg/m3
  viscosity: 2.922 ± 0.046 mPa·s
318.15 K, x2 = 0.3991
  mass density: 878.91 ± 0.15 kg/m3
  viscosity: 2.882 ± 0.046 mPa·s
318.15 K, x2 = 0.4998
  mass density: 867.88 ± 0.16 kg/m3
  viscosity: 2.859 ± 0.045 mPa·s
318.15 K, x2 = 0.5995
  mass density: 856.43 ± 0.16 kg/m3
  viscosity: 2.884 ± 0.046 mPa·s
318.15 K, x2 = 0.7
  mass density: 844.37 ± 0.16 kg/m3
  viscosity: 2.919 ± 0.046 mPa·s
318.15 K, x2 = 0.8002
  mass density: 831.75 ± 0.16 kg/m3
  viscosity: 3.012 ± 0.047 mPa·s
318.15 K, x2 = 0.9
  mass density: 818.53 ± 0.16 kg/m3
  viscosity: 3.12 ± 0.049 mPa·s
323.15 K, x2 = 0
  mass density: 915.62 ± 0.15 kg/m3
  viscosity: 3.134 ± 0.05 mPa·s
323.15 K, x2 = 0.0999
  mass density: 905.62 ± 0.15 kg/m3
  viscosity: 2.811 ± 0.045 mPa·s
323.15 K, x2 = 0.1999
  mass density: 895.76 ± 0.15 kg/m3
  viscosity: 2.687 ± 0.043 mPa·s
323.15 K, x2 = 0.2988
  mass density: 885.74 ± 0.15 kg/m3
  viscosity: 2.608 ± 0.041 mPa·s
323.15 K, x2 = 0.3991
  mass density: 875.17 ± 0.16 kg/m3
  viscosity: 2.569 ± 0.041 mPa·s
323.15 K, x2 = 0.4998
  mass density: 864.13 ± 0.16 kg/m3
  viscosity: 2.54 ± 0.04 mPa·s
323.15 K, x2 = 0.5995
  mass density: 852.69 ± 0.16 kg/m3
  viscosity: 2.555 ± 0.04 mPa·s
323.15 K, x2 = 0.7
  mass density: 840.64 ± 0.16 kg/m3
  viscosity: 2.573 ± 0.041 mPa·s
323.15 K, x2 = 0.8002
  mass density: 828.04 ± 0.16 kg/m3
  viscosity: 2.644 ± 0.042 mPa·s
323.15 K, x2 = 0.9
  mass density: 814.85 ± 0.16 kg/m3
  viscosity: 2.728 ± 0.043 mPa·s
328.15 K, x2 = 0
  mass density: 912.01 ± 0.15 kg/m3
  viscosity: 2.838 ± 0.045 mPa·s
328.15 K, x2 = 0.0999
  mass density: 901.91 ± 0.15 kg/m3
  viscosity: 2.531 ± 0.04 mPa·s
328.15 K, x2 = 0.1999
  mass density: 892.03 ± 0.15 kg/m3
  viscosity: 2.413 ± 0.038 mPa·s
328.15 K, x2 = 0.2988
  mass density: 881.97 ± 0.16 kg/m3
  viscosity: 2.338 ± 0.037 mPa·s
328.15 K, x2 = 0.3991
  mass density: 871.39 ± 0.16 kg/m3
  viscosity: 2.299 ± 0.036 mPa·s
328.15 K, x2 = 0.4998
  mass density: 860.35 ± 0.16 kg/m3
  viscosity: 2.267 ± 0.036 mPa·s
328.15 K, x2 = 0.5995
  mass density: 848.92 ± 0.16 kg/m3
  viscosity: 2.271 ± 0.036 mPa·s
328.15 K, x2 = 0.7
  mass density: 836.88 ± 0.16 kg/m3
  viscosity: 2.28 ± 0.036 mPa·s
328.15 K, x2 = 0.8002
  mass density: 824.29 ± 0.16 kg/m3
  viscosity: 2.333 ± 0.037 mPa·s
328.15 K, x2 = 0.9
  mass density: 811.13 ± 0.16 kg/m3
  viscosity: 2.399 ± 0.038 mPa·s
333.15 K, x2 = 0
  mass density: 908.41 ± 0.15 kg/m3
  viscosity: 2.581 ± 0.041 mPa·s
333.15 K, x2 = 0.0999
  mass density: 898.19 ± 0.15 kg/m3
  viscosity: 2.291 ± 0.036 mPa·s
333.15 K, x2 = 0.1999
  mass density: 888.26 ± 0.16 kg/m3
  viscosity: 2.178 ± 0.034 mPa·s
333.15 K, x2 = 0.2988
  mass density: 878.19 ± 0.16 kg/m3
  viscosity: 2.106 ± 0.033 mPa·s
333.15 K, x2 = 0.3991
  mass density: 867.59 ± 0.16 kg/m3
  viscosity: 2.066 ± 0.033 mPa·s
333.15 K, x2 = 0.4998
  mass density: 856.55 ± 0.16 kg/m3
  viscosity: 2.033 ± 0.032 mPa·s
333.15 K, x2 = 0.5995
  mass density: 845.11 ± 0.16 kg/m3
  viscosity: 2.03 ± 0.032 mPa·s
333.15 K, x2 = 0.7
  mass density: 833.08 ± 0.16 kg/m3
  viscosity: 2.033 ± 0.032 mPa·s
333.15 K, x2 = 0.8002
  mass density: 820.51 ± 0.16 kg/m3
  viscosity: 2.07 ± 0.033 mPa·s
333.15 K, x2 = 0.9
  mass density: 807.38 ± 0.17 kg/m3
  viscosity: 2.121 ± 0.033 mPa·s
